Laboratory results from patent US4283389A, “Novel antibiotic, BN-183B substance” (Meiji Seika Kaisha Ltd., priority 1978, dated 1981).

Columns and labels:
[1] = tested on: Herpes simplex virus type II 196; experiment: anti-Herpes virus activity in mice; assay type: in vivo
Herpes virus type II 196 = experiment: antiviral activity by tissue culture test; assay type: cell-based; details: dose 3.9 mcg/m
Vaccinia virus Lister = assay type: cell-based; details: dose 3.9 mcg/m
LD50 in mice = assay type: in vivo
lymphoid leukemia L-1210 = experiment: increase in life span of mice transplanted intraperitoneally with L-1210; assay type: in vivo
Method: (§1) Lymphocytic leukemia P-388 or lymphoid leukemia L-1210 cells were transplanted intraperitoneally in an amount of 1×10^6 per mouse into CDF1 mice or BDF1 mice (about 5 weeks old, body weight 20±1 g), five in one group. Twenty-four hours after the transplantation of the tumor, a solution of the BN-183B substance in distilled water for injection was administered intraperitoneally to the mice once a day for three successive days. The percent increase in life span (i.e., ILS) was measured by comparing the average number of days of survival of each treated group with that of a control group to which the BN-183B substance was not administered.

Influenza virus A0/PR-8 = assay type: cell-based; details: dose 3.9 mcg/m
[2] = tested on: Staphylococcus faecalis ATCC8043; experiment: minimum growth inhibitory concentration; assay type: cell-based; details: nutrient agar
From the text: (§2) Table 1 below summarizes the minimum growth inhibitory concentrations of the BN-183B substance on various microorganisms.
(§3) The culture media used were a nutrient agar (a product of Difco).

[3] = tested on: Escherichia coli NIHJ JC-2; experiment: minimum growth inhibitory concentration; assay type: cell-based; details: nutrient agar
From the text: as §2, §3

[4] = tested on: Escherichia coli K-12 IAM 1264; experiment: minimum growth inhibitory concentration; assay type: cell-based; details: nutrient agar
From the text: as §2, §3

Proteus vulgaris OX19 = experiment: minimum growth inhibitory concentration; assay type: cell-based; details: nutrient agar
From the text: as §2, §3

[5] = tested on: Staphylococcus epidermidis ATCC14990; experiment: minimum growth inhibitory concentration; assay type: cell-based; details: nutrient agar
From the text: as §2, §3

[6] = tested on: Staphylococcus aureus 209P JC-1; experiment: minimum growth inhibitory concentration; assay type: cell-based; details: nutrient agar
From the text: as §2, §3

[7] = tested on: Staphylococcus aureus Smith S-424; experiment: minimum growth inhibitory concentration; assay type: cell-based; details: nutrient agar
From the text: as §2, §3

solubility = assay type: physicochemical; details: hydrochloride
[8] = tested on: Bacillus subtilis ATCC 6633; experiment: paper disc method, inhibitory zone; assay type: cell-based; details: pure product, 20 to 500 mcg/ml
Method: In assaying the BN-183B substance, its anti-bacterial activity is utilized and Bacillus subtilis ATCC 6633 is used as an assaying strain. A mixture of 2% of mycin assay agar (a product of Kyoei Seiyaku K.K.) and 0.5% of bacto-agar (a product of Difco) is used as an assaying culture medium. When BN-183B substance (pure product) is assayed under the above conditions, the relation between the logarithm of the concentration within the range of 20 to 500 mcg/ml and the diameter of the inhibitory zone is linear, and an inhibitory zone having a diameter of 16 to 29 mm is given corresponding to the above concentration range (paper disc method).

[9] = tested on: Infectious pancreatic necrosis (IPN) virus of rainbow trout; experiment: antiviral activity by tissue culture test; assay type: cell-based; details: dose 0.5 mcg/m
[10] = tested on: Newcastle disease virus Miyadera; assay type: cell-based; details: dose 3.9 mcg/m
[11] = tested on: DNA-type and RNA-type viruses; experiment: antiviral activity by tissue culture test (overall); assay type: cell-based; details: overall result in words
[12] = tested on: Gram-positive and Gram-negative bacteria; experiment: growth inhibition of various microorganisms (overall); assay type: cell-based; details: overall result in words
From the text: as §2, §3

[13] = tested on: Lymphocytic leukemia P-388; experiment: increase in life span of mice transplanted intraperitoneally with P-388; assay type: in vivo
Method: as §1

[14] = tested on: Infectious hematopoietic necrosis (IHN) virus of rainbow trout; experiment: antiviral activity by tissue culture test; assay type: cell-based; details: dose 0.5 mcg/m

O=c1[nH]c(=O)n([C@H]2C[C@H](O)[C@@H](CO)O2)cc1I [IUDR, 5-iodo-2'-deoxyuridine, reference compound]
ET50 (number of days of 50% survival) ([1]; 100 mg/kg i.p.): 8.50 days
Cumulative Mortality ([1]; 100 mg/kg i.p., day 5 from inoculation): 0%
Cumulative Mortality ([1]; 100 mg/kg i.p., day 6 from inoculation): 0%
Cumulative Mortality ([1]; 100 mg/kg i.p., day 7 from inoculation): 30%
Cumulative Mortality ([1]; 100 mg/kg i.p., day 8 from inoculation): 40%
Cumulative Mortality ([1]; 100 mg/kg i.p., day 9 from inoculation): 60%
Cumulative Mortality ([1]; 100 mg/kg i.p., day 10 from inoculation): 70%
Cumulative Mortality ([1]; 100 mg/kg i.p., day 11 from inoculation): 70%
Cumulative Mortality ([1]; 100 mg/kg i.p., day 12 from inoculation): 70%
Cumulative Mortality ([1]; 100 mg/kg i.p., day 13 from inoculation): 70%
Cumulative Mortality ([1]; 100 mg/kg i.p., day 14 from inoculation): 70%

C[C@H](N)C(=O)N[C@@H]1[C@H]2C(=C(O)C[C@@H](O)[C@@H]2O)C(=O)O[C@]1(C)C(Cl)Cl [BN-183B substance]
Difference of Log TCID50/ml from the Control (Herpes virus type II 196): 3.83 Log TCID50/ml
Difference of Log TCID50/ml from the Control (Vaccinia virus Lister): < 3.00 Log TCID50/ml
LD50 (LD50 in mice; intramuscular): 4.1 mg/kg
LD50 (LD50 in mice; intraperitoneal): 4.3 mg/kg
LD50 (LD50 in mice; intravenous): 4.1 mg/kg
LD50 (LD50 in mice; oral): 50 mg/kg
LD50 (LD50 in mice; subcutaneous): 6.0 mg/kg
Percent Increase in Life Span (lymphoid leukemia L-1210; L-1210, 0.25 mg/kg i.p. once a day for three days): 10.8%
Percent Increase in Life Span (lymphoid leukemia L-1210; L-1210, 0.5 mg/kg i.p. once a day for three days): 35.1%
Percent Increase in Life Span (lymphoid leukemia L-1210; L-1210, 1 mg/kg i.p. once a day for three days): 32.4%
Percent Increase in Life Span (lymphoid leukemia L-1210; L-1210, 2 mg/kg i.p. once a day for three days): 45.9%
Percent Increase in Life Span (lymphoid leukemia L-1210; L-1210, 4 mg/kg i.p. once a day for three days): 59.5%
Difference of Log TCID50/ml from the Control (Influenza virus A0/PR-8): 2.50
Minimum Growth Inhibitory Concentration [2]: 0.39 µg/mL
Minimum Growth Inhibitory Concentration [3]: 1.56 µg/mL
Minimum Growth Inhibitory Concentration [4]: 0.78 µg/mL
Minimum Growth Inhibitory Concentration (Proteus vulgaris OX19): 6.25 µg/mL
Minimum Growth Inhibitory Concentration [5]: 0.20 µg/mL
Minimum Growth Inhibitory Concentration [6]: 0.20 µg/mL
Minimum Growth Inhibitory Concentration [7]: 0.20 µg/mL
Solubility in acetone (solubility; acetone): scarcely soluble
Solubility in chloroform (solubility; chloroform): scarcely soluble
Solubility in ethyl acetate (solubility; ethyl acetate): scarcely soluble
Solubility in methanol (solubility; methanol): slightly soluble
Solubility in water (solubility; water): Very soluble
diameter of the inhibitory zone [8]: 16 to 29 mm
Difference of Log TCID50/ml from the Control [9]: 6.801 Log TCID50/ml
anti-Herpes virus effect compared with IUDR ([1]; 1.25 mg/kg BN-183B vs 100 mg/kg IUDR, i.p.): the same effect as in the group to which 100 mg/kg of IUDR was administered
ET50 (number of days of 50% survival) ([1]; 1.25 mg/kg i.p.): 8.38 days
Cumulative Mortality ([1]; 1.25 mg/kg i.p., day 5 from inoculation): 0%
Cumulative Mortality ([1]; 1.25 mg/kg i.p., day 6 from inoculation): 20%
Cumulative Mortality ([1]; 1.25 mg/kg i.p., day 7 from inoculation): 20%
Cumulative Mortality ([1]; 1.25 mg/kg i.p., day 8 from inoculation): 60%
Cumulative Mortality ([1]; 1.25 mg/kg i.p., day 9 from inoculation): 70%
Cumulative Mortality ([1]; 1.25 mg/kg i.p., day 10 from inoculation): 70%
Cumulative Mortality ([1]; 1.25 mg/kg i.p., day 11 from inoculation): 80%
Cumulative Mortality ([1]; 1.25 mg/kg i.p., day 12 from inoculation): 90%
Cumulative Mortality ([1]; 1.25 mg/kg i.p., day 13 from inoculation): 90%
Cumulative Mortality ([1]; 1.25 mg/kg i.p., day 14 from inoculation): 90%
ET50 (number of days of 50% survival) ([1]; 2.5 mg/kg i.p.): 7.65 days
Cumulative Mortality ([1]; 2.5 mg/kg i.p., day 5 from inoculation): 0%
Cumulative Mortality ([1]; 2.5 mg/kg i.p., day 6 from inoculation): 10%
Cumulative Mortality ([1]; 2.5 mg/kg i.p., day 7 from inoculation): 20%
Cumulative Mortality ([1]; 2.5 mg/kg i.p., day 8 from inoculation): 70%
Cumulative Mortality ([1]; 2.5 mg/kg i.p., day 9 from inoculation): 80%
Cumulative Mortality ([1]; 2.5 mg/kg i.p., day 10 from inoculation): 100%
Difference of Log TCID50/ml from the Control [10]: 6.00 Log TCID50/ml
activity against DNA-type and RNA-type viruses [11]: very strong activity
inhibitory activity on Gram-positive and Gram-negative bacteria [12]: strong inhibitory activity
Percent Increase in Life Span ([13]; P-388, 0.25 mg/kg i.p. once a day for three days): 32.1%
Percent Increase in Life Span ([13]; P-388, 0.5 mg/kg i.p. once a day for three days): 41.5%
Percent Increase in Life Span ([13]; P-388, 1 mg/kg i.p. once a day for three days): 54.7%
Percent Increase in Life Span ([13]; P-388, 2 mg/kg i.p. once a day for three days): 79.2%
Percent Increase in Life Span ([13]; P-388, 4 mg/kg i.p. once a day for three days): 66.0%
Difference of Log TCID50/ml from the Control [14]: 3.000 Log TCID50/ml
